US11413292B2, “Tricyclic heterocycle compounds useful as HIV integrase inhibitors” (Merck Sharp & Dohme Corp., priority 2018, dated 2022)
Like-named read-outs stand apart in the source and are kept apart here.

Test system: HIV-1 (H9/IIIB strain) virus
Assay: microbe, parasite or virus in culture
Type: cell-based
Conditions: MT4-GFP cells infected with HIV-1 H9/IIIB, inhibition of reproductive ratio
[1] = 0% NHS condition (RPMI 1640), read-out: Viking, IC50 (0% NHS)
[2] = 100% normal human serum (NHS) condition, read-out: Viking, IC50 (100% NHS)

SMILES	IC50 [1]	IC50 [2]
COC1CCN2CN(CC1)n1cc(C(=O)NCc3ccc(F)c(Cl)c3F)c(=O)c(O)c1C2=O (single isomer, unassigned) [Example 21D]	2 nM	472 nM
COC1CCN2CN(CC1)n1cc(C(=O)NCc3c(F)cccc3F)c(=O)c(O)c1C2=O (single isomer, unassigned) [Example 22A]	8.2 nM	333 nM
COC1CCN2CN(CC1)n1cc(C(=O)NCc3c(F)cccc3F)c(=O)c(O)c1C2=O (single isomer, unassigned) [Example 22B]	1.6 nM	161 nM
COC1CCN2CN(CC1)n1cc(C(=O)NCc3c(F)cccc3F)c(=O)c(O)c1C2=O (single isomer, unassigned) [Example 22C]	2 nM	88 nM
COC1CCN2CN(CC1)n1cc(C(=O)NCc3c(F)cccc3F)c(=O)c(O)c1C2=O (single isomer, unassigned) [Example 22D]	1.4 nM	311 nM
COC1CCN2CN(CC1)n1cc(C(=O)NCc3cccc(F)c3F)c(=O)c(O)c1C2=O (single isomer, unassigned) [Example 23A]	5.8 nM	728 nM
COC1CCN2CN(CC1)n1cc(C(=O)NCc3cccc(F)c3F)c(=O)c(O)c1C2=O (single isomer, unassigned) [Example 23B]	2.1 nM	314 nM
COC1CCN2CN(CC1)n1cc(C(=O)NCc3cccc(F)c3F)c(=O)c(O)c1C2=O (single isomer, unassigned) [Example 23C]	4.3 nM	83 nM
COC1CCN2CN(CC1)n1cc(C(=O)NCc3cccc(F)c3F)c(=O)c(O)c1C2=O (single isomer, unassigned) [Example 23D]	1.9 nM	567 nM
O=C(NCc1ccc(F)cc1F)c1cn2c(c(O)c1=O)C(=O)N1CCCCN2C1 [Example 2A]	4.04 nM	4160 nM
O=C(NCc1ccc(F)cc1F)c1cn2c(c(O)c1=O)C(=O)N1CCCCN2C1 [Example 2B]	1.53 nM	234 nM
O=C(NCc1ccc(F)cc1F)c1cn2c(c(O)c1=O)C(=O)N1CCCCCN2C1 [Example 8A]	1.03 nM	1570 nM
O=C(NCc1ccc(F)cc1F)c1cn2c(c(O)c1=O)C(=O)N1CCCCCN2C1 [Example 8B]	0.86 nM	122 nM
O=C(NCc1cccc(Cl)c1F)c1cn2c(c(O)c1=O)C(=O)N1CCCCCN2C1 [Example 9A]	2.57 nM	5620 nM
O=C(NCc1cccc(Cl)c1F)c1cn2c(c(O)c1=O)C(=O)N1CCCCCN2C1 [Example 9B]	1.15 nM	196 nM
O=C(NCc1ccc(F)c(Cl)c1F)c1cn2c(c(O)c1=O)C(=O)N1CCCCCN2C1 [Example 10A]	1.89 nM	8580 nM
O=C(NCc1ccc(F)c(Cl)c1F)c1cn2c(c(O)c1=O)C(=O)N1CCCCCN2C1 [Example 10B]	1.65 nM	225 nM
O=C(NCc1c(F)ccc(Cl)c1F)c1cn2c(c(O)c1=O)C(=O)N1CCCCCN2C1 [Example 11A]	3.45 nM	12500 nM

SMILES	IC50 [1]	IC50 [2]
O=C(NCc1c(F)ccc(Cl)c1F)c1cn2c(c(O)c1=O)C(=O)N1CCCCCN2C1 [Example 11B]	2.09 nM	358 nM
O=C(NCc1c(F)ccc(Cl)c1F)c1cn2c(c(O)c1=O)C(=O)N1CCCCCCN2C1 [Example 12A]	14.3 nM	10700 nM
O=C(NCc1c(F)ccc(Cl)c1F)c1cn2c(c(O)c1=O)C(=O)N1CCCCCCN2C1 [Example 12B]	3.21 nM	428 nM
O=C(NCc1cccc(Cl)c1F)c1cn2c(c(O)c1=O)C(=O)N1CCOCCN2C1 [Example 13A]	2.74 nM	3360 nM
O=C(NCc1cccc(Cl)c1F)c1cn2c(c(O)c1=O)C(=O)N1CCOCCN2C1 [Example 13B]	2.19 nM	146 nM
O=C(NCc1c(F)cc(F)cc1F)c1cn2c(c(O)c1=O)C(=O)N1CCOCCN2C1 [Example 14A]	5.4 nM	4210 nM
O=C(NCc1c(F)cc(F)cc1F)c1cn2c(c(O)c1=O)C(=O)N1CCOCCN2C1 [Example 14B]	1.66 nM	157 nM
O=C(NCc1ccc(F)c(Cl)c1F)c1cn2c(c(O)c1=O)C(=O)N1CCOCCN2C1 [Example 15A]	3.7 nM	10700 nM
O=C(NCc1ccc(F)c(Cl)c1F)c1cn2c(c(O)c1=O)C(=O)N1CCOCCN2C1 [Example 15B]	1.61 nM	224 nM
O=C(NCc1c(F)ccc(Cl)c1F)c1cn2c(c(O)c1=O)C(=O)N1CCOCCN2C1 [Example 16A]	2.7 nM	12300 nM
O=C(NCc1c(F)ccc(Cl)c1F)c1cn2c(c(O)c1=O)C(=O)N1CCOCCN2C1 [Example 16B]	1.2 nM	247 nM
CN1CCN2CN(CC1)n1cc(C(=O)NCc3cccc(Cl)c3F)c(=O)c(O)c1C2=O [Example 24A]	5.1 nM	665 nM
CN1CCN2CN(CC1)n1cc(C(=O)NCc3cccc(Cl)c3F)c(=O)c(O)c1C2=O [Example 24B]	3.5 nM	485 nM
CN1CCN2CN(CC1)n1cc(C(=O)NCc3c(F)ccc(Cl)c3F)c(=O)c(O)c1C2=O [Example 25A]	4.5 nM	1000 nM
CN1CCN2CN(CC1)n1cc(C(=O)NCc3c(F)ccc(Cl)c3F)c(=O)c(O)c1C2=O [Example 25B]	2.1 nM	139 nM
O=C(NCc1ccc(F)cc1F)c1cn2c(c(O)c1=O)C(=O)N1CCC(F)(F)CCN2C1 [Example 26A]	6.6 nM	869 nM
O=C(NCc1ccc(F)cc1F)c1cn2c(c(O)c1=O)C(=O)N1CCC(F)(F)CCN2C1 [Example 26B]	3.2 nM	91 nM
